Experimental data from US20240110200A1, “Recombinant AAV Vectors and Gene Therapies for Treating Brain Diseases” (City University of Hong Kong, priority 2022, published 2024).

Key:
[1] = test system: GFAP+ cells / Camkll+ cells in cortex and hippocampus; assay: GFAP and Camkll immunostaining of TLE mouse brain; type: in vivo, C57BL/6J male mice; details: right intrahippocampal KA-injection; n=10 sections from N=4 mice
Procedure: For immunohistochemistry, mice are deeply anaesthetized by an overdose of pentobarbital sodium. Mice are transcardially perfused with 30 mL cold phosphate-buffered saline (PBS) and 30 mL 4% (w/v) paraformaldehyde (4% PFA). Brain tissue is removed, post-fixed with 4% PFA, and treated with 30% (w/v) sucrose in 4% PFA at 4° C. for 2˜3 days. Brain tissue is sectioned on a cryostat (30 μm for standard staining and 10 μm for Super-Resolution imaging) (Leica CM3500, Germany) and preserved with antifreeze buffer (20% (v/v) glycerine and 30% (v/v) ethylene glycol diluted in PBS) at −20° C. For immunostaining and statistics of co-labelled neurons and axonal synapses in the AC, serial sections containing the AC are selected for analysis. […]
Images are took at 20× magnification and montaged together with the same laser settings between the parallel studies. […] For quantification of co-localization, neurons expressing the indicated reporter are counted using only the corresponding color channel. Then, among these cells, the number of neurons co-expressing the marker of interest is counted by the Nikon imaging analysis software (NIS-Elements Viewer 5.21). […] A neuron is positive for a given marker if the corresponding signal is above background fluorescence. The ratio of neurons co-expressing both markers over the total number of cells expressing only the reporter is then calculated. […]

[2] = test system: KA-induced chronic epileptic mice; assay: Intrahippocampal kainic acid injection-induced chronic epilepsy (TLE) model, seizure monitoring by MMRS; type: in vivo, C57BL/6J male mice; details: 650 nL KA (0.3 mg/mL) intrahippocampal, no intervention
Procedure: C57BL/6J male mice (6˜7 weeks old) are anaesthetized with pentobarbital (100 mg/kg), a craniotomy is performed perpendicularly to the […] of the hippocampus (−2.06 mm posterior to the bregma, −1.80 mm to the midline, and −1.60 mm to the dura), and 650 nL KA (0.3 mg/mL) is injected at a speed of 30 nL/min.
Upon recovering from the anesthesia, the mice are monitored for at least an hour for any signs of acute epileptic seizures before being placed back into their cages for routine monitoring. For the mice only injected with KA (FIG. S16), they are monitored for 16 weeks after the KA injection.
The mice are housed separately under a standard 12-h light/dark cycle and stable temperature (23-25° C.) with free access to food and water. Each KA-injected mouse is monitored and recorded 24 h per day using a 360-smart camera for a minimum of three weeks after surgery. […]
The seizures of the mice are evaluated in a blinded manner; the examiners of the video are blind to the history of the mice. […]
After the C57bL/6J male mice (9-10 weeks old) show a stable occurrence of spontaneous recurrent seizures, epileptic mice are randomly divided into two groups (experimental and control). The daily seizure occurrence is recorded for 2 weeks as the pre-treatment baseline for each mouse (FIG. 6). […]

## C=C(C)[C@H]1CN[C@H](C(=O)O)[C@H]1CC(=O)O [KA, Kainic Acid]
[1]
  GFAP+ cells in the right hippocampus after 16 weeks: 748.56±74.88 per mm^2
[2]
  recurrent convulsive seizures of stages 3 to 5 at week 4: 5.2±1.52 seizures per day
